Data on 1 sequence can be found in article PMC7961786, “Magic Peptide: Unique Properties of the LRR11 Peptide in the Activation of Leukotriene Synthesis in Human Neutrophils” (International Journal of Molecular Sciences, 2021).

“Also recorded” adds a separate entry of the source.

One experiment has as its system 5′-biotinylated B-CpG. Nature of the experiment: TSM acoustic biosensor, peptide binding to immobilized B-CpG. From the text: (§1) To characterize the interaction of the studied synthetic ODNs with the LRR11 peptide, we applied the thickness shear mode (TSM) acoustic biosensor method, which is based on the investigation of ultrasonic waves in piezoelectric materials such as AT-cut quartz. This approach involved immobilizing a 5′-biotinylated ODN on the surface of TSM transducer covered by NeutrAvidin and then adding the LRR11 peptide. An unrelated peptide (URP) with a random primary structure ([…]) was used as a negative control. The measurement procedure was divided into several steps, in which each immobilization stage was followed by washing with an appropriate buffer solution; when peptide solutions at different concentrations (from 1 to 100 nM) were added to the surface-modified TSM transducer, a wash with Hanks buffer was used before increasing the peptide concentration.
Based on Langmuir isotherm Equation (1), (1) Δfcc=Δfsmaxc/KD+c where Δfs(c) is the frequency change at a certain peptide concentration under equilibrium conditions, (Δfs)max is the maximum frequency change, c is the peptide concentration, and KD is the equilibrium constant of dissociation, we estimated the (Δfs)max and KD values for binding of the LRR11 peptide to C-CpG and B-CpG (Table 3).
Eight MHz AT-cut piezoelectric quartz crystal transducer was obtained from CH Instruments, Austin, TX, USA. The transducer was covered on both sides with thin layers of gold that served as electrodes (working area 0.2 cm^2). Prior ODNs immobilization, the crystal was carefully cleaned with basic Piranha solution (29% NH3, 30% H2O and H2O2 with volumetric 1:5:1 ratio, respectively) for 25 min. After the thorough cleaning, the crystal was positioned between two silicon O-rings in a flow-through cell. The analyte was injected into the cell using a Genie Plus syringe pump (Kent Scientific, Torrington, CT, USA) at a flow rate of 50 μL/min. Each solution was applied until the resonance frequency stabilized. The surface of the transducer was first washed with deionized water, and then 125 μg/mL NeutrAvidin (WWR International GmbH, Vienna, Austria) solution in water was applied. Approximately 15 min were required to stabilize the signal at a constant NeutrAvidin flow rate. This was followed by washing with water to rinse out all non-chemisorbed NeutrAvidin molecules. Immobilization of ODN on the gold surface of the crystals is accomplished using avidin–biotin interactions. A 1 μM 5′-biotinylated ODN solution was injected over the neutravidin-modified surface and subsequently the crystal was washed again with water. The system was then equilibrated using Hanks buffer solution. This buffer was suitable for studying LRR11–ODN binding. Then LRR11 was used at concentrations of 1, 5, 10, 50 and 100 nM […] in Hanks buffer. After each addition of LRR11, the sensor surface was washed with Hanks buffer and LRR11 with the higher concentration was added. All binding experiments were carried out at room temperature. Buffer and sample solutions were introduced in a flow-through format. A network analyzer 8712ES (Agilent Technologies, Santa Clara, CA, USA) was used to measure the impedance properties of the sensor and determine fS and Rm.

Another experiment concerns PMNLs. Description: Phagocytosis of FITC-labeled S. typhimurium by neutrophils. The class given is cell-based, human. As to conditions: 1 µM ODN +/- 1 µM LRR11, FITC-labeled S. typhimurium 20 min; n = 3; Figure S2b. The protocol:
Figure S2b. Influence of LRR11 and ODNs on phagocytic activity of neutrophils. PMNLs supplemented with 1 µM ODN +/- 1 µM LRR11, except for control samples containing HBSS/HEPES instead of ODNs, were incubated for 20 min in Eppendorf tubes at 37 °C in 5% CO2 with continuous stirring. FITC-labeled S. typhimurium were then added for next 20 min, followed by FACS analysis (excitation: 488 nm, emission: 525 nm). Both the relative amounts of PMNLs involved in phagocytosis (A, B) and the fluorescence intensities, reflecting the average number of bacteria captured per cell (C, D), were estimated. To distinguish between internalized and surface-bound bacterial cells, trypan blue at a working concentration of 1 mg/ml, was used to quench the surface FITC fluorescence caused by the attached bacteria. Thus, each series of samples was duplicated to obtain results both without (A, C) and with (B, D) TB quenching, which corresponds to the total interaction and uptake of bacteria. Averaged flow cytometry data are presented, including means ± SEM for the percentages of FITC-positive (i.e., phagocytic) cells (A, B), and mean ± SEM for fluorescence intensities of FITC-positive subpopulations (C, D) (n=3; * p < 0.05; ** p < 0.01 in comparison with corresponding controls, ns – non significant, as indicated by two-way ANOVA followed by Dunnett’s or Tukey’s multiple comparison tests). […]

In the next experiment the test system is human neutrophils. Nature of the experiment: Intracellular free Ca^2+ in neutrophils (Fluo-3). The class given is cell-based. As to conditions: Figure 9. The protocol:
Figure 9 Effects of ODNs and LRR11 on intracellular concentration of free Ca^2+ in neutrophils. Fluo-3 AM-loaded neutrophils (1 × 10^6/mL) were cultured in fibrinogen-coated flat bottom plates in HBSS/HEPES medium supplemented or not with 1 µM LRR11, without additives or in the presence of 1 µM ODNs, at 37 °C, 5% CO2. Fluo-3 fluorescence signals (ex. 485 nm, em. 538 nm) were monitored with 2-min intervals. (A) Values represent the means ± SEM of fluorescence intensity increments in 7 min after the addition of stimulus (n = 3). * p < 0.05, ** p < 0.01, **** p < 0.001 compared with the control, as indicated by two-way ANOVA followed by Sidak’s multiple comparison test. (B) Representative blank corrected Fluo-3 fluorescence kinetic curves for control (square, black solid line), LRR11 (circle, black dotted line), A-CpG (square, red solid line) and LRR11_A-CpG mix (circle, red dotted line).
Intracellular Ca^2+ ions were detected by staining with Fluo-3, which is known to dramatically increase fluorescence after binding of calcium ions, was used. According to the manufacturer’s protocol, human neutrophils were incubated with 5 μM Fluo-3 AM ester (Thermo Fisher Scientific, Waltham, MA, USA) for 60 min at room temperature, followed by washing in PBS. Cells were then seeded in fibrinogen-coated 96-well plates (1 × 10^6/mL of HBSS/HEPES) and incubated at 37 °C in 5% CO2. Changes in fluorescence intensity upon excitation at 485 nm and emission at 538 nm were monitored at CLARIOstar fluorescence microplate reader for at least 60 min after stimulus injection, followed by data analysis using MARS Data Analysis Software, version 3.30 (both hardware and software are from BMG Labtech, Ortenberg, Germany).

In experiment [1] the test system is 5′-biotinylated G-rich ODN. Nature of the experiment: TSM acoustic biosensor, peptide binding to immobilized G-rich ODN. As to conditions: LRR11 1 to 100 nM, Hanks buffer.
Source text: as §1
Eight MHz AT-cut piezoelectric quartz crystal transducer was obtained from CH Instruments, Austin, TX, USA. The transducer was covered on both sides with thin layers of gold that served as electrodes (working area 0.2 cm^2). Prior ODNs immobilization, the crystal was carefully cleaned with basic Piranha solution (29% NH3, 30% H2O and H2O2 with volumetric 1:5:1 ratio, respectively) for 25 min. After the thorough cleaning, the crystal was positioned between two silicon O-rings in a flow-through cell. […]

As a reminder, the Kd is the free concentration of one partner at which half of the binding sites on the other are occupied at equilibrium, for simple one-to-one binding. On to “QLRKLNLSFNYQKRVSFAHLSLAPSFGSLV [LRR11, 30 amino acid peptide from leucine-rich repeat of TLR9]”, for which the “change of ∆fs at low LRR11 concentrations” value in the experiment with 5′-biotinylated B-CpG (1, 5, 10 nM LRR11, B-CpG) was “not significant or small changes of ∆fs”. This sequence also showed an equilibrium dissociation constant (Kd) on 5′-biotinylated B-CpG (LRR11-B-CpG complex, Langmuir fit, Hanks buffer, room temperature, LRR11 1-100 nM, three independent experiments) of 55.1 ± 17.4 nM. For the same sequence, the “effect on bacteria engulfment” value in the experiment on PMNLs is reported as “LRR11 did not affect this”. Besides, the “effect of LRR11 on calcium ion influx with/without ODNs” value in the experiment with human neutrophils (1 µM LRR11 +/- 1 µM ODNs) is “noticeable only in the absence of ODNs”. Besides, the calcium influx result in the experiment on human neutrophils (1 µM LRR11 or 1 µM ODNs, Fluo-3, 37 °C, n = 3) was “potentiates calcium influx”. The “time course of cytoplasmic Ca^2+ concentration” value in the experiment with human neutrophils (1 µM LRR11 or 1 µM ODNs) is listed as “ensures long-term maintenance of an increased cytoplasmic Ca^2+ concentration”. The “interaction with G-rich ODN” value in experiment [1] is listed as “does not interact with the LRR11 peptide at any concentration; also recorded: no significant change of resonant frequency was observed”.
